In paper PMC12775434, “Ultra-large virtual screening unveils potent agonists of the neuromodulatory orphan receptor GPR139” (Nature Communications, 2025):
Where “and” joins values, the source holds several entries; their conditions need not be identical. Identical values can stand only once.

What was measured:
[1] = molecular target: T1, GPR139 (Homo sapiens, UniProt Q6DWJ6); assay: Ca2+ mobilization assay, agonist mode, stable GPR139-CHOk1 cell line; assay type: cell-based; conditions: for Ca2+ signal (% of Cmp 1a): Agonist mode
T1 sequence (Q6DWJ6 1-353): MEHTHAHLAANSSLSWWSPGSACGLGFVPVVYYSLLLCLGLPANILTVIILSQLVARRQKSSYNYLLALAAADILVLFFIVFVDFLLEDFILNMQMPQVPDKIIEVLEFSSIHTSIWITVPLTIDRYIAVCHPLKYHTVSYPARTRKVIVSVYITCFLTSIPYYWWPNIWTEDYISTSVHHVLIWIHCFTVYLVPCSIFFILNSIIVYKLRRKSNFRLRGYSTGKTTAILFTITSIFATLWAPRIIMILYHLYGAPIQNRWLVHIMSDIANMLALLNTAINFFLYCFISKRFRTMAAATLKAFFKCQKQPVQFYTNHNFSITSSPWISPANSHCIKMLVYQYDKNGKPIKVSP
Protocol: Primary screening and pharmacological characterization of compounds were performed using a CHO-K1 cell line that stably expresses human GPR139 (GPR139-CHOk1). The GPR139-CHOk1 cell line was kindly provided by H. Lundbeck A/S, Denmark[24]. GPR139-CHOk1 cells were grown in Ham’s F-12 Kaighn’s Modification Medium (ThermoFisher #21127030) supplemented with 10% dialyzed fetal bovine serum (US origin, ThermoFisher #26400044), 100 units/mL Penicillin-Streptomycin (ThermoFisher #15140122), and 1 mg/mL Geneticin (ThermoFisher #11811031). […] M1R-CHOk1 cells were purchased from The Missouri S&T cDNA Resource Center (#CEM100TN00). M1R-CHOk1 cells were grown in Ham’s F12 Medium (ThermoFisher #21765029) supplemented with 10% fetal bovine serum (Brazilian origin, ThermoFisher #10270106), 100 units/mL Penicillin-Streptomycin, and 0.25 mg/mL Geneticin. HEK293A cells transiently transfected with GPR139 were used for additional pharmacological assessment of signaling pathways activated by GPR139. HEK239A cells were generously provided by Dr. Asuka Inoue, Tohoku University, Japan. HEK293A cells were grown in Dulbecco’s Modified Eagle Medium (ThermoFisher #31966047) supplemented with 10% dialyzed fetal bovine serum and 100 units/mL Penicillin-Streptomycin. Cell lines were maintained at 37 °C in humidified incubator equilibrated with 5% CO2.
(§1) 30,000 GPR139- or M1R-CHOk1 cells/well were seeded in black clear bottom tissue culture treated 96-well plates (Greiner #655090) and grown for 20–24 h. Cells were washed with HEPES buffer (Hank’s Balanced Salt Solution (HBBS) supplemented with 20 mM HEPES, 1 mM MgCl2, and 1 mM CaCl2; pH 7.4). Cells were loaded with 50 µL of 2 µM Fluo-4 AM dye (ThermoFisher #F14202) in HEPES buffer supplemented with 2.5 mM probenecid and 0.01% Pluronic F-68 (ThermoFisher #24040032) for 1 h at 37 °C. Cells were washed with HEPES buffer. 50 µL HEPES buffer supplemented with 2.5 mM probenecid was added, and the cells were incubated for 10 min at 37 °C before measurement. 50 µL test compounds diluted in HEPES buffer from DMSO stocks (final DMSO concentration of maximally 0.3%) were added automatically after baseline measurements. The intracellular calcium mobilization was measured on a FlexStation 3 Multimode Microplate Reader (Molecular Devices) at 37 °C with filters for excitation of 485 nm and emission of 525 nm.
(§2) Our primary compound screening protocol consisted of two subsequent steps that allowed to screen for agonists and antagonists simultaneously. In the first step, the screening compounds were applied at 10 µM to test for agonist activity (agonist mode). Following 20 min incubation with the compounds added in the first step, in the second step, an EC80 concentration (800 nM) of the reference agonist Lundbeck Cmp 1a was applied to test for antagonist activity (antagonist mode).
Pharmacological data and statistical analyses were performed in GraphPad Prism v9–10 (Graphpad Software Inc., San Diego, CA), which are also specifically described in the figure and table legends. The functional assay responses were normalized to buffer (0%) and Lundbeck Cmp 1a or JNJ-63533054 (100%), for Ca^2+ and IP1 experiments in the GPR139-CHOk1 stable cell line or Ca^2+, G protein activation, and arrestin-3 recruitment experiments in the HEK293A cells transiently transfected with GPR139, respectively. Data are from at least three independent experiments, unless stated otherwise. Concentration-response curves were fitted applying non-linear regression using the log (agonist) versus response model with variable slope. ANOVA was applied for comparing results and determining statistical significance.

[2] = molecular target: T1, GPR139; assay: Ca2+ mobilization assay, antagonist mode (EC80 800 nM Lundbeck Cmp 1a after 20 min preincubation), GPR139-CHOk1; assay type: cell-based
Protocol: as §1
as §2, with “(antagonist mode). In the agonist mode (first step) response is seen only with compounds having agonist activity (Cmp 1a), but not with non-receptor-binding compounds (Vehicle) or antagonists (NCRW0105-E06) (Supplementary Fig. 14). […] No antagonist compounds were identified in this study.” for “(antagonist mode).”

[3] = individual replicates (Supplementary Figure 1)
[4] = individual replicates (Supplementary Figure 4)

SMILES | Ca2+ signal (% of Cmp 1a) [1, 3] | Ca2+ signal (% of Cmp 1a) [2, 3] | further results
Cc1ccc(C(=O)Nc2cccc(-c3nnc[nH]3)c2)c2c1CCC2 [Compound 61, CC=1C=CC(C(=O)NC=2C=CC=C(C2)C3=NN=CN3)=C4CCCC41] | -6 % of Cmp 1a and -0.901 % of Cmp 1a and -0.172 % of Cmp 1a | 50.3835 % of Cmp 1a and 83.4509 % of Cmp 1a and 72.5179 % of Cmp 1a | –
CC(NC(=O)Cc1coc(-c2cccs2)n1)c1ccccc1 (stereo not drawn) [Compound 1.44, CC(NC(=O)CC1=COC(=N1)C2=CC=CS2)C=3C=CC=CC3] | – | – | calcium mobilization response relative to Lundbeck Cmp 1a ([1]; 10 µM compound, agonist mode): 43%; Ca2+ signal (% of Cmp 1a) [1, 4]: 88 % of Cmp 1a and 15 % of Cmp 1a and 25 % of Cmp 1a; fold decrease in potency on substitution of the central oxadiazole ring ([1]; Ca2+ mobilization): > 50 fold; EC50 ([1]; GPR139-CHOk1, read-out: EC50, Ca2+ mobilization): > 10 µM; Ca2+ signal (% of Cmp 1a) [2, 4]: -8 % of Cmp 1a and 68 % of Cmp 1a and 69 % of Cmp 1a
C[C@@H](NC(=O)CSc1nnc2n1CCCCC2)c1ccccc1 [Compound 53, C[C@@H](NC(=O)CSC1=NN=C2CCCCCN12)C=3C=CC=CC3] | 10 % of Cmp 1a and 6 % of Cmp 1a and 3.73 % of Cmp 1a | 70.6126 % of Cmp 1a and 69.0784 % of Cmp 1a and 84.522 % of Cmp 1a | –
CC(=O)c1sc(NC(=O)Cc2cncs2)nc1-c1ccccc1 [Compound 36, CC(=O)C=1SC(NC(=O)CC2=CN=CS2)=NC1C=3C=CC=CC3] | 9 % of Cmp 1a and -3 % of Cmp 1a and 2.21 % of Cmp 1a | 88.0715 % of Cmp 1a and 92.8057 % of Cmp 1a and 66.8597 % of Cmp 1a | –
O=C(Nc1nc(C(F)(F)F)cs1)c1ccccc1-n1cnnn1 [Compound 58, FC(F)(F)C1=CSC(NC(=O)C=2C=CC=CC2N3C=NN=N3)=N1] | 8 % of Cmp 1a and -1.73 % of Cmp 1a and -5 % of Cmp 1a | 95.3999 % of Cmp 1a and 91.9653 % of Cmp 1a and 85.8363 % of Cmp 1a | –
Cc1ccc(OCC(=O)Nc2ccc3c(c2)nc(C)n3C)cc1 [Compound 21, CC1=NC=2C=C(NC(=O)COC=3C=CC(C)=CC3)C=CC2N1C] | 1.09 % of Cmp 1a and -7 % of Cmp 1a and -8 % of Cmp 1a | 67.0268 % of Cmp 1a and 92.847 % of Cmp 1a and 77.1923 % of Cmp 1a | –
O=C(CCn1cnc2cc(Cl)ccc2c1=O)Nc1ccccc1F [Compound 46, FC=1C=CC=CC1NC(=O)CCN2C=NC=3C=C(Cl)C=CC3C2=O] | 2.73 % of Cmp 1a and -6 % of Cmp 1a (2×) | 71.2649 % of Cmp 1a and 88.164 % of Cmp 1a and 80.2917 % of Cmp 1a | –
Cc1nnnn1C(=Cc1ccccc1)C(=O)N[C@@H](C)c1ccccc1 [Compound 17, C[C@H](NC(=O)C(=CC=1C=CC=CC1)N2N=NN=C2C)C=3C=CC=CC3] | 4.36 % of Cmp 1a and -2.84 % of Cmp 1a and 2.54 % of Cmp 1a | 61.7351 % of Cmp 1a and 85.7644 % of Cmp 1a and 78.6356 % of Cmp 1a | –
CC(Sc1nnc(C(C)(C)C)[nH]1)C(=O)NC(C)c1ccccc1 (stereo not drawn) [Compound 51, CC(NC(=O)C(C)SC1=NN=C(N1)C(C)(C)C)C=2C=CC=CC2] | -5 % of Cmp 1a and -3 % of Cmp 1a and 10 % of Cmp 1a | 68.4513 % of Cmp 1a and 72.762 % of Cmp 1a and 87.4722 % of Cmp 1a | –
C[C@@H](NC(=O)Cn1c2c(sc1=O)CCCCC2)c1ccccc1 [Compound 55, C[C@@H](NC(=O)CN1C=2CCCCCC2SC1=O)C=3C=CC=CC3] | 18 % of Cmp 1a and -2.59 % of Cmp 1a and 22 % of Cmp 1a | 74.6627 % of Cmp 1a and 75.4146 % of Cmp 1a and 90.0274 % of Cmp 1a | –
COc1ccc2cc(-c3nc(CC(=O)NC(C)c4ccccc4)no3)sc2c1 (stereo not drawn) [Compound 1.36, COC1=CC2=C(C=C(C3=NC(CC(NC(C4=CC=CC=C4)C)=O)=NO3)S2)C=C1] | – | – | activation of GPR139 in analog screen ([1]; 10 µM): All analogs, with the exception of compound 1.36, activated GPR139; Ca2+ signal (% of Cmp 1a) [1, 4]: 0 % of Cmp 1a and -15 % of Cmp 1a and -10 % of Cmp 1a; change in potency with larger substituents on the thiophene ring ([1]; Ca2+ mobilization): three-fold reduction to a complete loss of activity; Ca2+ signal (% of Cmp 1a) [2, 4]: 52 % of Cmp 1a and 69 % of Cmp 1a and 54 % of Cmp 1a
O=C(CCn1nnc2ccccc2c1=O)Nc1ccc(F)c(F)c1F [Compound 33, FC=1C=CC(NC(=O)CCN2N=NC=3C=CC=CC3C2=O)=C(F)C1F] | -1.58 % of Cmp 1a and 1 % of Cmp 1a and 18 % of Cmp 1a | 80.4976 % of Cmp 1a and 74.4333 % of Cmp 1a and 82.6399 % of Cmp 1a | –
C[C@H](NC(=O)c1cn2cccnc2n1)c1ccccc1 [Compound 18, C[C@H](NC(=O)C1=CN2C=CC=NC2=N1)C=3C=CC=CC3] | 2.28 % of Cmp 1a and 13 % of Cmp 1a and 21 % of Cmp 1a | 80.6397 % of Cmp 1a and 68.0976 % of Cmp 1a and 80.5455 % of Cmp 1a | –
O=C(Cn1ccnc1)Nc1cccc(N2C(=O)c3ccccc3C2=O)c1 [Compound 24, O=C(CN1C=CN=C1)NC=2C=CC=C(C2)N3C(=O)C=4C=CC=CC4C3=O] | -4 % of Cmp 1a and 3 % of Cmp 1a and -9 % of Cmp 1a | 76.1398 % of Cmp 1a and 60.9703 % of Cmp 1a and 76.3719 % of Cmp 1a | –
Cc1ccc(-c2nc(CC(=O)NCc3ccccc3)cs2)cc1 [Compound 68, CC=1C=CC(=CC1)C2=NC(CC(=O)NCC=3C=CC=CC3)=CS2] | -9 % of Cmp 1a and 15 % of Cmp 1a and 19 % of Cmp 1a | 60.0488 % of Cmp 1a and 59.0311 % of Cmp 1a and 102.015 % of Cmp 1a | –
CCc1ocnc1C(=O)Nc1cccc(C(=O)NCc2ccccc2)c1 [Compound 29, CCC=1OC=NC1C(=O)NC=2C=CC=C(C2)C(=O)NCC=3C=CC=CC3] | -4.43 % of Cmp 1a and 1.9 % of Cmp 1a and 8 % of Cmp 1a | 59.2373 % of Cmp 1a and 59.0417 % of Cmp 1a and 94.2662 % of Cmp 1a | –
Cc1nn(C)c2nc(C(=O)N[C@@H](C)c3ccccc3)ccc12 [Compound 15, C[C@H](NC(=O)C=1C=CC=2C(C)=NN(C)C2N1)C=3C=CC=CC3] | -11 % of Cmp 1a and 0.224 % of Cmp 1a and 7.56 % of Cmp 1a | 88.3523 % of Cmp 1a and 83.7132 % of Cmp 1a and 99.0735 % of Cmp 1a | –
